Experimental data as given in paper PMC9101188, “Human α-Defensin-6 Neutralizes Clostridioides difficile Toxins TcdA and TcdB by Direct Binding” (International Journal of Molecular Sciences, 2022).
No end group written: not given here.

How the values were obtained:
TcdB autoprotease domain = assay: In vitro autoprocessing of TcdB (InsP6-induced autoprotease activity); format: biochemical, C. difficile VPI 10463; conditions: NEM 1 mM; TcdB 2 µg, InsP6 1 mM; 1 h, 37 °C, pH 7.4 (n = 2)
Method: (§1) The flow rate was 25 µL/min. […] A representative gel is shown (n = 2). […] GAPDH served as the loading control. A representative Western blot is shown.
The effects of α-def-6 on TcdB autoprocessing by its intrinsic cysteine protease activity were analyzed. […] Inositol hexakisphosphate (1 mM, Santa Cruz Biotechnology, Dallas, TX, USA) was added to the samples to induce autoprocessing. N-Ethylmaleimide (1 mM, Sigma Aldrich by Merck KGaA, Darmstadt, Germany) served as positive control for the inhibition of TcdB-autoprocessing. The reactions were stopped by addition of a Laemmli buffer and heat denaturation (95 °C). For the analysis, the samples were electrophoresed on 8% SDS polyacrylamide gels, and proteins were visualized by Coomassie staining.

glucosyltransferase = conditions: control in UDP-Glo assay at 10 mM; ref [29]; cited from earlier work
Method: Based on the finding that TcdB directly binds to α-def-6 in vitro, a set of experiments was performed to investigate the consequences of this interaction for TcdB. Although α-def-6 and TcdB interact directly, the release of the glucosyltransferase domain by the autoprotease domain in the presence of inositol hexakisphosphate (InsP6) was not affected (Figure 1B).

zebrafish embryos = conditions: in vivo
TcdA, TcdB and CDT = conditions: ref [25],[26]; cited from earlier work
Description: (§2) The benchmark for treating CDIs is still the use of some specific antibiotics such as vancomycin, metronidazole or fidaxomicin [20]. More and more attention is also being paid to the direct inactivation of the secreted toxins, for example by using anti-toxin-antibodies such as bezlotoxumab or actoxumab. Following the approach of directly inactivating the secreted toxins and based on previous findings of our group and of others, we investigated the effects of human endogenous antimicrobial peptides on the C. difficile toxins TcdA and TcdB. Here, of particular interest is the group ...

bacterial protein toxins = conditions: ref [51]; cited from earlier work
Description: There is increasing evidence that α-def-6 represents an outlier among the α-defensins, which is also noticeable in the context of bacterial toxins. Anti-toxin activities have already been described for several α-defensins.

TcdB [1] = conditions: SPR, β-def-1 6 µM (control); pH 7.0, 25 °C, 25 µL/min, 4 min injection
Method: (A) 2400 RUs of biotinylated TcdB were immobilized via streptavidin-biotin binding onto a streptavidin sensor chip, and α-def-6 (concentrations as indicated) was applied to the chip for 4 min followed by a dissociation phase with a flow of running buffer. A solution of 6 µM of α-def-6 was injected twice to assess reproducibility, and β-def-1 (6 µM) served as a control. The flow rate was 25 µL/min.
TcdB was biotinylated via EZ-Link^TM Sulfo-NHS-Biotin (Thermo Fisher Scientific, Waltham, MA, USA) according to the manufacturer’s protocol. Briefly, TcdB was incubated with Sulfo-NHS-Biotin for 30 min at room temperature (RT). To remove the excess non-reacted biotin, TcdB was rebuffered with a Zeba^TM Spin Desalting Column (Thermo Fisher Scientific, Waltham, MA, USA). The successful biotinylation was verified via Western blotting and detection with peroxidase-conjugated streptavidin (1:2500, F. Hoffmann-La Roche AG, Basel, Switzerland).
The binding of α-def-6 to biotinylated TcdB was analyzed via surface plasmon resonance spectroscopy (SPR) with a Reichert SPR7500DC SPR spectrometer (Reichert Technologies, Buffalo, NY, USA). All analytes were dialyzed in running buffer (10 mM HEPES, 150 mM NaCl, 50 µM EDTA, 0.005% (v/v) Tween®20, pH 7.0) beforehand. Experiments were performed with a flow rate of 25 µL/min at 25 °C. […]

[2] = test system: bacterial toxins including TcdB; conditions: cited from earlier work
TcdB glucosyltransferase = assay: UDP-Glo glucosyltransferase assay; format: biochemical, C. difficile VPI 10463; conditions: TcdB 200 pM, recombinant Rac1 5 µM, UDP-glucose 100 µM, 1 h, 37 °C, pH 7.5, luminescence (n ≥ 3)
Method: as §1
UDP-Glo™ Glucosyltransferase assay with UDP-Glucose (Promega Corporation, Madison, WI, USA) was performed according to the manufacturer’s protocol. Briefly, TcdB (200 pM) was incubated in glucosylation buffer (50 mM HEPES, 100 mM KCl, 2 mM MgCl2, 1 mM MnCl2, 100 mg/L BSA, pH 7.5) with various concentrations of the respective inhibitors in a final volume of 40 µL. 5 µM recombinant Rac1 was included in the samples as a substrate. […] Castanospermine (10 mM, Santa Cruz Biotechnology, Dallas, TX, USA) served as control for inhibition of glucosyltransferase activity of TcdB. To stop the reaction, three times 10 µL of each sample were transferred to a white half area 96 well microplate (Greiner Bio-One International GmbH, Kremsmünster, Austria) combined with 10 µL of UDP Detection Reagent and mixed at 1000 rpm for 30 s on a plate shaker (Titramax 1000, Heidolph Instruments GmbH & Co. KG, Schwabach, Germany). Luminescence was recorded after 15–60 min via a Tecan infinite M1000 Pro plate reader (Tecan, Männdorf, Switzerland) with an integration time of 750 ms.

bacteria = conditions: ref [46]; cited from earlier work
Description: as §2, with “TcdB. […] The administration” for “TcdB. Here,”, “of α-def-6 protected human cells from TcdB, but also from” for “of particular interest is”, “the closely related TcdA and the clinically more relevant combination of both TcdA and TcdB. Exemplarily, the protective effect could be confirmed for TcdB in vivo using the zebrafish embryo” for “the group”

TcdB [3] = conditions: ref [24]; cited from earlier work

## CCN1C(=O)C=CC1=O [NEM, N-ethylmaleimide, reference compound]
TcdB autoprotease domain
  autocatalytic processing of TcdB (effect of control inhibitor): prevented the autocatalytic processing of TcdB

## O[C@H]1[C@H](O)[C@@H](O)CN2CC[C@H](O)[C@H]12 [castanospermine]
glucosyltransferase
  inhibition of glucosyltransferase: established glucosyltransferase inhibitor

## Abamectin [reference compound]
Zebrafish embryos
  neurotoxicity: causes neurotoxicity

## α-defensin-1: human neutrophil peptide 1, α-defensin cited from earlier work [reference compound]
TcdA, TcdB and CDT
  inactivation of TcdA, TcdB and CDT: inactivate TcdA and CDT, in addition to TcdB
Bacterial protein toxins
  destabilization of toxin secondary and tertiary structures (local unfolding): leads to the destabilization of secondary and tertiary structures

## β-def-1: β-defensin used as control to exclude non-specific interactions; purchased from Pepta Nova (DHYNCVSSGGQCLYSACPIFTKIQGTCYRGKAKCCK; ends and bridges not checked; cysteine pairing not given here) [reference compound]
TcdB [1]
  interaction with immobilized TcdB, compared to α-def-6: much weaker in combination with a faster washout
[2]
  interaction with bacterial toxins including TcdB: do not interact with bacterial toxins including TcdB

B1: α-def-5: structurally similar defensin; purchased from Pepta Nova (peptide, UniProt Q01523 20-94, looked up)
Defensin alpha 5: ESLQERADEATTQKQSGEDNQDLAISFAGNGLSALRTSGSQARATCYCRTGRCATRESLSGVCEISGRLYRLCCR
modifications: Defensin-5
notes: structurally similar defensin; purchased from Pepta Nova
TcdB glucosyltransferase
  inhibition of glucosyltransferase activity of TcdB: clear concentration-dependent reduction of glucosyltransferase activity
TcdA, TcdB and CDT
  inactivation of TcdA, TcdB and CDT: inactivate TcdA and CDT, in addition to TcdB
bacteria
  biocidal / antimicrobial activity: significant biocidal activity against invading pathogens
TcdB [3]
  inhibition of glucosyltransferase and glucosylhydrolase activity of TcdB: directly inhibits the glucosyltransferase and glucosylhydrolase activity of TcdB
